According to patent US20220175862A1, “CO-ADMINISTRATION COMPOSITION FOR PREVENTING OR TREATING HYPERCHOLESTEROLEMIA, CONTAINING BALLOON-FLOWER EXTRACT OR PLATYCODIN D DERIVED THEREFROM AS ACTIVE INGREDIENT” (University-Industry Cooperation Group of Kyung Hee …, priority 2019, published 2022):

What was measured:
PCSK9 = PCSK9 Western blot; assay type: cell-based; settings: 24 h, indicated concentrations
Method: (§1) Cells were treated with PD and PG for 24 h. Proteins were separated on 10% SDS-PAGE and transferred to nitrocellulose membranes. The membranes were incubated overnight at 4° C. For reference, anti-LDLR, Mylip/IDOL and LXRα were purchased from Abcam (Cambridge, UK), and anti-GAPDH was purchased from Cell Signaling (MA, USA). Further, anti-PCSK9 was purchased from Proteintech (Chicago. USA). The blots were then incubated with HRP-conjugated secondary antibody for 1 h at room temperature and measured using a Pierce ECL Western Blotting Substrate (Thermo Scientific, MA, USA).

LDLR protein = LDLR protein stability after cycloheximide (CHX) treatment, Western blot; assay type: cell-based; settings: PD 2.5 μM 24 h, then 100 μg/mL CHX
Method: as §1
Considering that IDOL mRNA is decreased upon PG and PD treatment, it could be inferred that PG and PD are able to enhance LDLR protein stability. Therefore, LDLR protein levels remaining after treatment with cycloheximide (CHX) which blocks new protein synthesis were examined.

HepG2 cells = test: Cell viability assay (WST); assay type: cell-based; settings: 24 h
Method: Cells were dispensed in a 96-well plate and treated with PG (10 μg/mL, 50 μg/mL, 100 μg/mL, 250 μg/mL, 500 μg/mL) or PD (1 μM, 2.5 μM, 5 μM) for 24 h. After incubation, a WST solution (Daeillab Service, Co., Seoul, Korea) was added to each well and further incubated for 2 h. Next, water-soluble formazan in the medium was measured at 450 nm using an ELISA reader (Molecular Devices, Palo Alto, Calif.).
To investigate whether PG and PD display cytotoxic effects on HepG2 cells, cell viability was examined by WST1 assay following treatment with different concentrations of PG (10 μg/mL, 50 μg/mL, 100 µg/mL, 250 μg/mL, 500 μg/mL) or PD (1 μM, 2.5 μM, 5 μM). […] However, when high concentrations of 500 μg/mL of PG and 5 μM of PD were treated, cell viability was measured as 85% and 86%, respectively.

LXRα = LXRα protein expression by Western blot; assay type: cell-based; settings: PD 1 μM, 2.5 μM, 5 μM, 24 h
Method: as §1

[1] = system: cell surface LDLR in HepG2 cells; test: Cell surface LDLR analysis by flow cytometry; assay type: cell-based; settings: 2.5 μM of PD, 24 h
Method: Cells were treated as described above for 24 h, harvested, and then incubated at 37° C. for 30 min with anti-LDLR (Abcam, Cambridge, UK) diluted at 1:60 in PBS containing 5% BSA. The cells were washed with 1% BSA in PBS and incubated with Alexa Fluor 488-conjugated goat anti-rabbit IgG (Invitrogen, CA, USA) using a 1:250 dilution at 37° C. for 30 min. The cells were fixed with 0.5% PFA for 10 min, resuspended in PBS, and measured by flow cytometry (FACSCalibur, BD Biosciences, San Jose, Calif., USA). Data were analyzed using a CellQuest Pro software (BD Biosciences, USA).
Next, FACS analysis was performed to examine whether PG and PD increase LDLR expression on cell surface.

[2] = system: LDLR expression in HepG2 cells; test: LDLR protein expression by Western blot; assay type: cell-based; settings: 24 h
Method: as §1
There is a report that LDLR mediates the uptake of LDL-induced cholesterol from plasma, lowering blood cholesterol levels. Therefore, it was examined whether PG and PD upregulate LDLR expression in HepG2 cells.
Generally, statins are widely used for lowering blood levels of LDL-C, because they upregulate hepatic LDLR expression and enhance the uptake of LDL-C in the blood. To investigate whether PG and PD have a synergistic effect with statins on LDLR expression, HepG2 cells were treated with PG or PD together with simvastatin for 24 h, and then the expression levels of LDLR were examined by Western blotting.

[3] = system: LDL uptake in HepG2 cells; test: LDL uptake assay (BODIPY-FL-LDL, confocal microscopy); assay type: cell-based; settings: PD 2.5 μM 24 h, then BODIPY-LDL 1 h
Method: Cells were dispensed in a 24-well plate and treated as described above. After treatment with drugs, the culture medium was removed and replaced with 5 μg/mL of BODIPY-FL-LDL (Invitrogen, CA, USA) at 37° C. for 1 h. The cells were washed with PBS containing 0.3% BSA and fixed with 4% paraformaldehyde (PFA) for 10 min. Nuclei were stained with 1 μg/mL of DAPI in 2% BSA for 1 min and analyzed using confocal microscopy.
Then, confocal microscopy was performed.

IDOL mRNA in HepG2 cells = test: IDOL mRNA expression by RT-PCR; assay type: cell-based
Method: (§2) Cells were dispensed in a 6-well plate, and treated with PD or PG for 24 h, and then total RNA was extracted using an R&A-BLUE Total RNA extraction kit (iNtRON Biotechnology, Inc., Korea). Next, complementary DNA (cDNA) was synthesized from 1 μg of RNA using a PrimeScript 1 st strand cDNA Synthesis Kit (Takara Biotechnology, Dalian. Liaoning, China). RT-PCR was performed with a Maxime PCR PreMix Kit (i-StarTaq) (iNtRON Biotechnology, Inc., Korea). Sequences of primers used herein are as in Table 1, and GAPDH was used as an internal control.
To examine whether PD suppresses IDOL mRNA expression, co-treatment of T0901317 (LXR agonist) and PD was performed for 24 h. The LXR is a transcription factor that activates a target gene involved in lipid and cholesterol homeostasis, and IDOL is a representative target gene of LXR. In addition. T0901317 increases the expression of IDOL by binding to LXR.

[4] = system: hypercholesterolemia-induced rat; settings: cited from earlier work
LDLR mRNA in HepG2 cells = test: LDLR mRNA expression by RT-PCR; assay type: cell-based; settings: PD 1 μM, 2.5 μM, 24 h
Method: as §2
To define molecular mechanisms underlying the increased LDLR expression by PG and PD treatment, the effects of PG and PD on expression of genes including IDOL and PCSK9, which are known to regulate LDLR protein levels, were first examined.

C[C@@H]1O[C@@H](O[C@H]2[C@H](OC(=O)[C@]34CCC(C)(C)C[C@H]3C3=CC[C@@H]5[C@@]6(C)C[C@H](O)[C@H](O[C@@H]7O[C@H](CO)[C@@H](O)[C@H](O)[C@H]7O)C(CO)(CO)[C@@H]6CC[C@@]5(C)[C@]3(C)C[C@H]4O)OC[C@H](O)[C@@H]2O)[C@H](O)[C@H](O)[C@H]1O[C@@H]1OC[C@@H](O)[C@H](O[C@@H]2OC[C@](O)(CO)[C@H]2O)[C@H]1O [PD, Platycodin D]
proteolytic process of PCSK9 (PCSK9): do not affect | LDLR protein stability after CHX, vs untreated cells (LDLR protein): significantly stable | cell viability (HepG2 cells; 5 μM of PD): 86% | cytotoxic effects on HepG2 cells (HepG2 cells; PD 1 μM to 2.5 μM): no significant cytotoxic effects | LXR-α protein levels (LXRα): did not change | cell surface LDLR levels, as compared with a control [1]: 1.2±0.07 fold change | LDLR expression (Western blot) ([2]; HepG2 cells): induce LDLR expression in HepG2 cells in a dose-dependent manner | increase in the uptake of LDL particles vs untreated control cells [3]: 1.7 fold | mRNA levels of IDOL (IDOL mRNA in HepG2 cells; HepG2, 24 h): significantly decreased | T0901317-induced increase of IDOL mRNA (IDOL mRNA in HepG2 cells; co-treatment PD 2.5 μM and T0901317 10 μM, 24 h): attenuated | cholesterol in the body [4]: effect of lowering cholesterol | LDLR mRNA expression (LDLR mRNA in HepG2 cells): no significant effects

O=S(=O)(c1ccccc1)N(CC(F)(F)F)c1ccc(C(O)(C(F)(F)F)C(F)(F)F)cc1 [T0901317, reference compound]
mRNA levels of IDOL gene (IDOL mRNA in HepG2 cells; T0901317 10 μM, 24 h): increased

CCC(C)(C)C(=O)O[C@H]1C[C@@H](C)C=C2C=C[C@H](C)[C@H](CC[C@@H]3C[C@@H](O)CC(=O)O3)[C@H]21 [simvastatin, reference compound]
increase in hepatic LDLR levels vs untreated control cells ([2]; simvastatin 1 μM alone, HepG2): approximately 2.2 fold
